Assays:
[1] = system: primary human CAPSCs; test: ACTA2 expression by qRT-PCR; type: cell-based; conditions: 100 nM Cal, 48 h; samples responding / samples tested
Description: Total RNA was purified following Trizol extraction according to the manufacturer's instructions. cDNA synthesis was carried out using iScript reagent (Bio-Rad), and qRT-PCR performed using SsoAdvanced SYBR Green reagent on the CFX384 detection system (Bio-Rad). Relative expression values were determined using the standard curve method. Primer sequences can be found in Table 2.

[2] = system: primary human CAPSCs; test: Lipid droplet accumulation assay (BODIPY 493/503); type: cell-based; conditions: 100 nM Cal, 48 h; samples responding / samples tested
Description: Primary human CAPSCs were seeded onto glass coverslips. After overnight attachment, cells were treated with vehicle (DMSO) or 100 nM calcipotriol for 48 h. Media was aspirated, cells were washed twice with PBS (Gibco) and fixed in 10% buffered formalin at room temperature for 15 minutes. Fixative was removed and cells were washed three times with PBS. Cells were then stained with 1 μg/ml 4,4-Difluoro-1,3,5,7,8-Pentamethyl-4-Bora-3a,4a-Diaza-s-Indacene (BODIPY 493/503, Molecular Probes) for 1 h at room temperature, protected from light. Dye was removed and cells were washed three times with PBS, then mounted using Vectastain mounting medium (Vector Labs). Fluorescence was visualized through the GFP filter on a Leica DM5000B fluorescent microscope and quantification performed using ImageJ.

[3] = system: KPC mice with pancreatic ductal adenocarcinoma; test: KPC mouse PDA study; type: in vivo; conditions: Cal alone
Description: KPC mice with pancreatic ductal adenocarcinoma were used based on tumor size, as described previously (Olive et al., 2009). In this study, enrollment was restricted to mice with tumors of a mean diameter between 6 and 9 mm, as determined by high resolution ultrasound imaging. Suitable mice were assigned to a treatment group: gemcitabine; calcipotriol; or gemcitabine and calcipotriol combination. Gemcitabine was administered as a saline solution at 100 mg/kg by intraperitoneal injection, once every three days; when appropriate, a final dose was given two hours prior to euthanasia. Calcipotriol was administered as a saline solution daily at 60 μg/kg by intraperitoneal injection. […]
LC-MS/MS was performed as described by Bapiro et al. (Bapiro et al., 2011). […] Analytes were separated using a gradient of acetonitrile in 10 mM ammonium acetate, pH 10 and detected using a Thermo LTQ-XL mass spectrometer (Thermo Fisher Scientific). Drugs recoveries were normalized using the internal standards and quantified using calibration standards generated from untreated tissue homogenates as described (Bapiro et al., 2011).
Tumors harvested from treated KPC mice were immediately fixed in buffered formalin. […] CD31-positive area was quantified in each section using Nuance software. […] Total tumor cells were quantified per field, as well as total and percent CC3-positive tumor cells per field. […]

[4] = system: MiaPaCa-2 cells; test: CAPSC conditioned media experiments; type: cell-based, human; conditions: CM from Cal-treated CAPSCs (100 nM, 48 h), 48 h on MiaPaCa-2
Description: Primary […] were grown to 100% confluency. Fresh media was added to the cultures, and at this time, […] were treated with 100 nM calcipotriol. After 48 h, conditioned media was harvested, sterile-filtered through 0.45 μm pores, and added to pancreatic cancer cells (PCCs) at 50-60% confluency. PCCs were treated directly with 100 nM calcipotriol at the onset of conditioned media incubation. After 48 h, PCCs were harvested and RNA and protein isolated for analysis.

C=C1/C(=C\C=C2/CCC[C@]3(C)[C@@H]([C@H](C)/C=C/[C@@H](O)C4CC4)CC[C@@H]23)C[C@@H](O)C[C@@H]1O [Cal, 1α,24-(OH)2-24-cyclopropyl-D3]
decreased expression of αSMA (ACTA2), patient samples [1]: 24/27 | lipid droplet formation, primary patient samples [2]: 19/27 | efficacy as a single agent [3]: no measurable beneficial effects | gene expression changes induced by CAPSC conditioned media [4]: largely abrogated

Source: patent US9895381B2, “Vitamin D receptor agonists to treat diseases involving CXCL12 activity” (Salk Institute for Biological Studies, priority 2013, dated 2018)
